The results in this text go back to US20140275711A1, “1-(Arylmethyl)-5,6,7,8-tetrahydroquinazolline-2,4-diones and Analogs and the Use Thereof” (Impact Therapeutics, Inc., priority 2011, published 2014).

Assay [1] relates to SW620 human colorectal cancer cells. Kind of assay: Potentiation of the growth inhibiting activity of MMS, MTT based cell viability assay. The following applies: read-out: Compounds potentiate the growth inhibiting activity of MMS (IC50).
Experimental: The synergistic potentiation effect of PARP inhibitors on the growth inhibiting activity of DNA damaging anticancer drugs such as methyl methanesulphonate (MIMS) were measured with SW620 human colorectal cancer cells (Shanghai Cancer Institute) using a MTT based cell viability assay. SW620 cells were grown and maintained in RPMI1640 (Gibco) medium supplemented with 10% FBS (Hyclone). In the first day of experiment, 4000 cells were seeded to each well of a 96-well cell culture plate and incubated at 37° C. and 5% CO2 in a cell culture incubator overnight. In the next day, the cell culture medium was removed. […] The serial dilutions of the reference compounds and the compounds to be tested were made with a 1:3 and 1:10 fashion in DMSO. The 10-fold concentrated solutions of these compounds were made by mixing 10 μl of the serial dilutions in DMSO with 90 μl fresh medium. The final concentration of DMSO in the medium was 1%. The cells were incubated at 37° C. in 5% CO2 cell culture incubator for additional 5 days (120 hours). Afterwards, the 96-well cell culture plate was taken out and 20 μl of MTT solution was added to each well and incubated at 37° C. for 4 h. The medium was removed and 100 μl DMSO was added to each well. The 96-well cell culture plates were shaked adequately for 10 min and readed in a Varioskan Flash plate reader (Thermo Fisher Scientific) at 520 and 690 nm. The data were analyzed by Prism 5 software (GraphPad). The obtained 520 nm absorbance readings substracting corresponding 690 nm reading were analyzed and plotted against the Log scale of the compound concentrations.
For assay [2], the system named is Human breast cancer cell line T47D. Put plainly: Potentiation of MMS induced apoptosis, cell based caspase-3 activity assay.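 Further: Caspase-3 activity in cell lysates measured by fluorescence (RFU), EC50 fitted from sigmoidal curve of signal versus log compound concentration in presence of MMS.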 The following applies: read-out: Compounds potentiate the apoptosis inducing activity of MMS (EC50).
Experimental: Human breast cancer cell line T47D (Nanjing KeyGEN Biotech. CO., LTD.) was used to determine the potentiation effect of PARP-1 inhibitors on the apoptosis inducing activity of DNA damaging anticancer drugs such as MMS. Intracellular caspase-3 activity was used to measure cell apoptosis. Briefly, T47D cells were grown in DMEM/F12 cell culture medium (Hyclone) supplemented with 0.2 U/ml insulin (Genview) and 10% FBS (Hyclone). A day before experiment, 20000 of T47D cells were seeded to each well of a 96-well cell culture plate and maintained at 37° C. and 5% CO2 in a cell culture incubator overnight. On the day of experiment, cell culture medium was removed. […] The serial dilutions of the compounds to be tested and the reference compounds were made in a 1:3 and 1:10 fashion in DMSO. The 10-fold compound solutions were made by mixing 10 μl DMSO serial dilution solutions with 90 μl fresh growth medium. Twenty four hours later, the cells in the 96-well plates were centrifuged at 1000 g for 5 min and the supernatants were removed. 50 μl lysis buffer (10 mM Tris, pH 7.5, 0.1M NaCl, 1 mM EDTA, 0.01% Triton X-100) was added to each well and the plates were shaked horizontally for 30 min at 4° C. After centrifugation at 1000 g at 4° C. for 10 min, 20 μl of supernatant was transferred from each well to a corresponding well in a 384-well black plate. […] The plates were shaked to uniformly mix the wells and incubated at 37° C. for 3 h. […] The caspase-3 activity induced by the compounds was expressed as a relative fluorescence unit (RFU). The obtained fluorescence readings were analyzed using a commercial graphic software (GraphPad Prism 5) and plotted against the Log value of the compound concentrations. The EC50 values were obtained by fitting the data points with the equation of Y (fluorescence reading)=minimal fluorescence reading+(maximal fluorescence reading−minimal fluorescence reading)/(1+10̂(LogEC50−LogC)), where C is the concentration of the testing compound. The EC50 values were obtained by fitting the data points with S-shaped dose response curve equation (GraphPad Software, Inc).
Assay [3] deals with BRCA-2 deficient CAPAN-1 human pancreatic cancer cells. Kind of assay: Cell growth inhibition of BRCA-2 deficient CAPAN-1 cells, MTT based cell viability assay. The following applies: Homo sapiens, CAPAN-1, 240 h, read-out: Growth inhibition of CAPAN-1 cells by compounds (IC50).
Experimental: BRCA-2 deficient CAPAN-1 human pancreatic cancer cells were used to test the growth inhibiting activity of substituted 1-(arylmethyl)-5,6,7,8-tetrahydroquinazoline-2,4(1H,3H)-diones. Briefly, CAPAN-1 cells are grown and maintained in IMEM medium supplemented with 20% FBS. The assay takes 10 days to finish. On day 1, 6000 CAPAN-1 cells are seeded to each well of a 96-well plate. The cells are incubated at 37° C. in a CO2 cell culture incubator overnight. […] Ten-fold compound solutions were made by mixing 10 μl DMSO serial dilution solutions with 90 μl fresh growth medium. The cell culture medium was removed and 180 μl fresh media with FBS and 20 μl of compound solutions were added to each well. The final concentration of DMSO was 1%. Cells were then returned to the CO2 cell culture incubator and incubated at 37° C. for two days (day 3 and day 4). On day 5, the same procedure as what was done on day 2 was repeated. Cell culture medium was removed and fresh medium containing serial dilutions of compounds or reference compounds were added. Cells were returned to the CO2 cell culture incubator and incubated for two more days. On day 8, same procedure was repeated again and fresh medium containing the testing compounds or reference compounds were added and incubated for an additional 2 days. On day 10, 20 μl of MTT reagent (5 mg/ml) was added to each well of the cell culture plate and incubated for 4 h. The cell culture media was removed and 100 μl DMSO was added to each well. The 96-well cell culture plates were shaked horizontally for 10 min and readed in a Varioskan Flash plate reader (Thermo Fisher Scientific) at 520 and 690 nm. The obtained 520 nm absorbance readings substracting corresponding 690 nm reading were analyzed using a commercial graphic software (GraphPad Prism 5) and plotted against the Log scale of the compound concentrations.
[4] abbreviates: SW620 cells, medium containing 1.5 μg/ml MMS, 5 days (120 hours), MTT.
The mark [5] stands for this setting: T47D cells, 100 nM MMS, 24 hours, intracellular caspase-3 activity.

Usually IC50 stands for the concentration at which inhibition is half-maximal. A word on the EC50: it is the concentration that produces a half-maximal response.

Read-outs that look alike come from different tables or passages of the source.

For `O=C(c1cc(Cc2n[nH]c(=O)c3ccccc23)ccc1F)N1CCN(C(=O)C2CC2)CC1` [AZD2281, olaparib, reference compound], the IC50 is 46 nM in assay [1] (Homo sapiens, SW-620, 120 h) and 1070 nM in assay [3]. For the same compound, in assay [2] (Homo sapiens, T47D, 24 h), the EC50 was 14 nM.
As for `O=C(c1cccc(Cn2c3c(c(=O)[nH]c2=O)CCCC3)c1)N1CCN(c2ncccn2)CC1` [Example 5, 1-(3-(4-(Pyrimidin-2-yl)piperazine-1-carbonyl)benzyl)-5,6,7,8-tetrahydroquinazoline-2,4(1H,3H)-dione], the IC50 was 15 nM in assay [1] (Homo sapiens, SW-620, 120 h) and 22 nM in assay [3]. The EC50 in assay [2] (Homo sapiens, T47D, 24 h) amounted to 3.5 nM.
For the compound `O=C(c1cccc(Cn2c3c(c(=O)[nH]c2=O)CCCC3)c1)N1CCN(C(=O)C2CC2)CC1` [Example 6, 1-(3-(4-(Cyclopropylcarbonyl)piperazine-1-carbonyl)benzyl)-5,6,7,8-tetrahydroquinazoline-2,4(1H,3H)-dione], in assay [1] (Homo sapiens, SW-620, 120 h), the IC50 came out at 120 nM. The EC50 in assay [2] (Homo sapiens, T47D, 24 h) is greater than 1000 nM.
Take `O=C(c1cccc(Cn2c3c(c(=O)[nH]c2=O)CCCC3)c1)N1CCN(C(=O)c2cccs2)CC1` [Example 7, 1-(3-(4-(Thiophene-2-carbonyl)piperazine-1-carbonyl)benzyl)-5,6,7,8-tetrahydroquinazoline-2,4(1H,3H)-dione]: the IC50 in assay [1] (Homo sapiens, SW-620, 120 h) came to 21 nM. For the same compound, the EC50 in assay [2] (Homo sapiens, T47D, 24 h) was found to be 62 nM.
Take `O=C(c1cccc(Cn2c3c(c(=O)[nH]c2=O)CCCC3)c1)N1CCN(c2nccs2)CC1` [Example 8, 1-(3-(4-(Thiazol-2-yl)piperazine-1-carbonyl)benzyl)-5,6,7,8-tetrahydroquinazoline-2,4(1H,3H)-dione]: the IC50 in assay [1] (Homo sapiens, SW-620, 120 h) was 11 nM. Also, the EC50 in assay [2] (Homo sapiens, T47D, 24 h) came to 20 nM.
As to `O=C(c1cccc(Cn2c3c(c(=O)[nH]c2=O)CCCC3)c1)N1CCN(C(=O)C2CCCC2)CC1` [Example 9, 1-(3-(4-(Cyclopentylcarbonyl)piperazine-1-carbonyl)benzyl)-5,6,7,8-tetrahydroquinazoline-2,4(1H,3H)-dione], the 50% inhibitory concentration (IC50) was 12 nM in assay [1] (Homo sapiens, SW-620, 120 h) and 107 nM in assay [3]. For the same compound, the concentration for a half-maximal effect (EC50) in assay [2] (Homo sapiens, T47D, 24 h) was 91 nM.
Take `O=C(c1ccccc1)N1CCN(C(=O)c2cccc(Cn3c4c(c(=O)[nH]c3=O)CCCC4)c2)CC1` [Example 10, 1-(3-(4-Benzoylpiperazine-1-carbonyl)benzyl)-5,6,7,8-tetrahydroquinazoline-2,4(1H,3H)-dione]: the half-inhibitory concentration (IC50) in assay [1] (Homo sapiens, SW-620, 120 h) is 36 nM. Also, in assay [2] (Homo sapiens, T47D, 24 h), the EC50 was found to be 325 nM.
The matching figures for `O=C(c1cccc(Cn2c3c(c(=O)[nH]c2=O)CCCC3)c1)N1CCN(C(=O)C2CCCCC2)CC1` [Example 12, 1-(3-(4-(Cyclohexylcarbonyl)piperazine-1-carbonyl)benzyl)-5,6,7,8-tetrahydroquinazoline-2,4(1H,3H)-dione]: 9.7 nM and 62 nM.
As for `O=C(c1cccc(Cn2c3c(c(=O)[nH]c2=O)CCCC3)c1)N1CCN(C(=O)c2ccco2)CC1` [Example 13, 1-(3-(4-(Furan-2-carbonyl)piperazine-1-carbonyl)benzyl)-5,6,7,8-tetrahydroquinazoline-2,4(1H,3H)-dione], the IC50 in assay [1] (Homo sapiens, SW-620, 120 h) worked out at 33 nM. Besides, the EC50 in assay [2] (Homo sapiens, T47D, 24 h) was found to be 374 nM.
Regarding `O=C(c1cccc(Cn2c3c(c(=O)[nH]c2=O)CCCC3)c1)N1CCN(C(=O)C2CCC2)CC1` [Example 14, 1-(3-(4-(Cyclobutylcarbonyl)piperazine-1-carbonyl)benzyl)-5,6,7,8-tetrahydroquinazoline-2,4(1H,3H)-dione], the IC50 in assay [1] (Homo sapiens, SW-620, 120 h) turned out to be 22 nM. The EC50 in assay [2] (Homo sapiens, T47D, 24 h) stood at 35 nM.
Regarding `O=C(c1ccsc1)N1CCN(C(=O)c2cccc(Cn3c4c(c(=O)[nH]c3=O)CCCC4)c2)CC1` [Example 15, 1-(3-(4-(Thiophene-3-carbonyl)piperazine-1-carbonyl)benzyl)-5,6,7,8-tetrahydroquinazoline-2,4(1H,3H)-dione], the IC50 in assay [1] (Homo sapiens, SW-620, 120 h) turned out to be 31 nM. Besides, in assay [2] (Homo sapiens, T47D, 24 h), the concentration for a half-maximal effect (EC50) was 72 nM.
Take `O=C(c1cccc(Cn2c3c(c(=O)[nH]c2=O)CCCC3)c1)N1CCN(c2cnccn2)CC1` [Example 16, 1-(3-(4-(Pyrazin-2-yl)piperazine-1-carbonyl)benzyl)-5,6,7,8-tetrahydroquinazoline-2,4(1H,3H)-dione]: in assay [1] (Homo sapiens, SW-620, 120 h), the IC50 was found to be 13 nM. Moreover, in assay [2] (Homo sapiens, T47D, 24 h), the EC50 was 43 nM.
With `O=C(c1cc(Cn2c3c(c(=O)[nH]c2=O)CCCC3)ccc1F)N1CCN(C(=O)C2CC2)CC1` [Example 19, 1-(4-Fluoro-3-(4-(cyclopropylcarbonyl)piperazine-1-carbonyl)benzyl)-5,6,7,8-tetrahydroquinazoline-2,4(1H,3H)-dione], the half-maximal inhibitory concentration (IC50) in assay [1] (Homo sapiens, SW-620, 120 h) turned out to be 25 nM. The EC50 in assay [2] (Homo sapiens, T47D, 24 h) is 324 nM.
Turning to `CCS(=O)(=O)N1CCN(C(=O)c2cc(Cn3c4c(c(=O)[nH]c3=O)CCCC4)ccc2F)CC1` [Example 29, 1-(4-Fluoro-3-(4-ethylsulfonylpiperazine-1-carbonyl)benzyl)-5,6,7,8-tetrahydroquinazoline-2,4(1H,3H)-dione], in assay [1] (Homo sapiens, SW-620, 120 h), the 50% inhibitory concentration (IC50) was 18 nM. Also, the concentration for a half-maximal effect (EC50) in assay [2] (Homo sapiens, T47D, 24 h) turned out to be 138 nM.
The matching figures for `CCN1CCN(C(=O)c2cc(Cn3c4c(c(=O)[nH]c3=O)CCCC4)ccc2F)CC1` [Example 31, 1-(4-Fluoro-3-(4-ethylpiperazine-1-carbonyl)benzyl)-5,6,7,8-tetrahydroquinazoline-2,4(1H,3H)-dione]: 31 nM and 295 nM.
Turning to `O=C(c1ccc(F)cc1)N1CCN(C(=O)c2cc(Cn3c4c(c(=O)[nH]c3=O)CCCC4)ccc2F)CC1` [Example 32, 1-(4-Fluoro-3-(4-(4-fluorobenzoyl)piperazine-1-carbonyl)benzyl)-5,6,7,8-tetrahydroquinazoline-2,4(1H,3H)-dione], the IC50 in assay [1] (Homo sapiens, SW-620, 120 h) came out at 6.3 nM. Further, the EC50 in assay [2] (Homo sapiens, T47D, 24 h) turned out to be 27 nM.
Taken in the same sequence, the figures for `CC(=O)N1CCN(C(=O)c2cc(Cn3c4c(c(=O)[nH]c3=O)CCCC4)ccc2F)CC1` [Example 34, 1-(4-Fluoro-3-(4-acetylpiperazine-1-carbonyl)benzyl)-5,6,7,8-tetrahydroquinazoline-2,4(1H,3H)-dione] were 42 nM and 402 nM.
As for `COc1ccc(C(=O)N2CCN(C(=O)c3cc(Cn4c5c(c(=O)[nH]c4=O)CCCC5)ccc3F)CC2)cc1` [Example 37, 1-(4-Fluoro-3-(4-(4-methoxybenzoyl)piperazine-1-carbonyl)benzyl)-5,6,7,8-tetrahydroquinazoline-2,4(1H,3H)-dione], in assay [1] (Homo sapiens, SW-620, 120 h), the half-maximal inhibitory concentration (IC50) was 14 nM. Also, in assay [2] (Homo sapiens, T47D, 24 h), the EC50 stood at 48 nM.
In the case of `O=C(c1cccc(Cn2c3c(c(=O)[nH]c2=O)CCC3)c1)N1CCN(c2ncccn2)CC1` [Example 45], in assay [1] (setting [4]), the concentration for half-maximal inhibition (IC50) was found to be 138 nM. Moreover, the EC50 in assay [2] (setting [5]) worked out at 402 nM.
For `O=C(c1ccccc1)N1CCN(C(=O)c2ccc(F)c(Cn3c4c(c(=O)[nH]c3=O)CCCC4)c2)CC1` [Example 48, 1-(6-Fluoro-3-(4-benzoylpiperazine-1-carbonyl)benzyl)-5,6,7,8-tetrahydroquinazoline-2,4(1H,3H)-dione], the half-maximal inhibitory concentration (IC50) in assay [1] (Homo sapiens, SW-620, 120 h) stood at 13 nM. For the same compound, the EC50 in assay [2] (Homo sapiens, T47D, 24 h) is 26 nM.
`O=C(c1ccc(F)c(Cn2c3c(c(=O)[nH]c2=O)CCCC3)c1)N1CCN(C(=O)c2ccco2)CC1` [Example 52, 1-(6-Fluoro-3-(4-(furan-2-carbonyl)piperazine-1-carbonyl)benzyl)-5,6,7,8-tetrahydroquinazoline-2,4(1H,3H)-dione]: in assay [1] (Homo sapiens, SW-620, 120 h), the IC50 is 16 nM. Besides, the half-maximal effective concentration (EC50) in assay [2] (Homo sapiens, T47D, 24 h) was 24 nM.
With `O=C(c1cc(Cn2c3c(c(=O)[nH]c2=O)CCCC3)ccc1F)N1CCC(c2ccccc2)CC1` [Example 54, 1-(4-Fluoro-3-(4-phenylpiperidine-1-carbonyl)benzyl)-5,6,7,8-tetrahydroquinazoline-2,4(1H,3H)-dione], the IC50 in assay [1] (Homo sapiens, SW-620, 120 h) amounted to 107 nM. For the same compound, in assay [2] (Homo sapiens, T47D, 24 h), the EC50 stood at 532 nM.
In the case of `O=C(c1ccc(Cn2c3c(c(=O)[nH]c2=O)CCCC3)cc1)N1CCN(c2ncccn2)CC1` [Example 55, 1-(4-(4-(Pyrimidin-2-yl)piperazine-1-carbonyl)benzyl)-5,6,7,8-tetrahydroquinazoline-2,4(1H,3H)-dione], the half-inhibitory concentration (IC50) in assay [1] (Homo sapiens, SW-620, 120 h) is greater than 10000 nM. Further, the concentration giving a half-maximal response (EC50) in assay [2] (Homo sapiens, T47D, 24 h) is greater than 10000 nM.
`O=C(c1ccccc1Cn1c2c(c(=O)[nH]c1=O)CCCC2)N1CCN(c2ncccn2)CC1` [Example 56, 1-(2-(4-(Pyrimidin-2-yl)piperazine-1-carbonyl)benzyl)-5,6,7,8-tetrahydroquinazoline-2,4(1H,3H)-dione]: the IC50 in assay [1] (Homo sapiens, SW-620, 120 h) was greater than 10000 nM. In addition, the half-maximal effective concentration (EC50) in assay [2] (Homo sapiens, T47D, 24 h) was greater than 10000 nM.
Regarding `CC1CCc2c(c(=O)[nH]c(=O)n2Cc2ccc(F)c(C(=O)N3CCN(c4ncccn4)CC3)c2)C1` (stereo not drawn) [Example 57, 1-(4-Fluoro-3-(4-(pyrimidin-2-yl)piperazine-1-carbonyl)benzyl)-6-methyl-5,6,7,8-tetrahydroquinazoline-2,4(1H,3H)-dione], the half-inhibitory concentration (IC50) in assay [1] (Homo sapiens, SW-620, 120 h) is 221 nM. Further, the concentration for a half-maximal effect (EC50) in assay [2] (Homo sapiens, T47D, 24 h) was 429 nM.
Take `CC1CCCc2c1c(=O)[nH]c(=O)n2Cc1ccc(F)c(C(=O)N2CCN(c3ccccn3)CC2)c1` (stereo not drawn) [Example 58, 1-(4-Fluoro-3-(4-(pyridin-2-yl)piperazine-1-carbonyl)benzyl)-5-methyl-5,6,7,8-tetrahydroquinazoline-2,4(1H,3H)-dione]: in assay [1] (setting [4]), the IC50 came to 82 nM. In assay [2] (setting [5]), the EC50 came to 350 nM.
As for `O=C(c1cc(Cn2c3c(c(=O)[nH]c2=O)CCCCC3)ccc1F)N1CCN(c2ncccn2)CC1` [Example 59, 1-(4-Fluoro-3-(4-(pyrimidin-2-yl)piperazine-1-carbonyl)benzyl)-6,7,8,9-tetrahydro-1H-cyclohepta[d]pyrimidine-2,4(3H,5H)-dione], the 50% inhibitory concentration (IC50) in assay [1] (Homo sapiens, SW-620, 120 h) came to 42 nM. The EC50 in assay [2] (Homo sapiens, T47D, 24 h) was 309 nM.
